Data taken from PubChem BioAssay (NCI).
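Test compounds were applied to cells in 96-well plates for 48 hours at 5 doses. GI50 = concentration required for 50% inhibition of growth. TGI marks complete inhibition of growth.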

Experiments:
Experiment in all cases: growth of human tumour cells (NCI), 48 h; in the data active means GI50 below about 0.43 µM; inactive means the rest
RPMI-8226 leukemia = system: RPMI-8226 leukemia
SK-OV-3 ovarian = system: SK-OV-3 ovarian
HCT-116 colon = system: HCT-116 colon
U251 CNS = system: U251 CNS
NCI-H23 lung = system: NCI-H23 lung
DLD-1 colon = system: DLD-1 colon
IGROV1 ovarian = system: IGROV1 ovarian
LOX IMVI melanoma = system: LOX IMVI melanoma
SN12C renal = system: SN12C renal
SNB-19 CNS = system: SNB-19 CNS
COLO 205 colon = system: COLO 205 colon
HL-60(TB) leukemia = system: HL-60(TB) leukemia
UO-31 renal = system: UO-31 renal
ACHN renal = system: ACHN renal
HOP-18 NSCLC = system: HOP-18 NSCLC
UACC-257 melanoma = system: UACC-257 melanoma
NCI-H522 lung = system: NCI-H522 lung
CAKI-1 renal = system: CAKI-1 renal
SW-620 colon = system: SW-620 colon
786-0 renal = system: 786-0 renal
M19-MEL melanoma = system: M19-MEL melanoma
TK-10 renal = system: TK-10 renal
HT29 colon = system: HT29 colon
MALME-3M melanoma = system: MALME-3M melanoma
HOP-62 NSCLC = system: HOP-62 NSCLC
A498 renal = system: A498 renal
SF-268 CNS = system: SF-268 CNS
OVCAR-4 ovarian = system: OVCAR-4 ovarian
OVCAR-3 ovarian = system: OVCAR-3 ovarian
SF-539 CNS = system: SF-539 CNS
OVCAR-8 ovarian = system: OVCAR-8 ovarian
K-562 leukemia = system: K-562 leukemia
KM12 colon = system: KM12 colon
HCC-2998 colon = system: HCC-2998 colon
NCI-H226 lung = system: NCI-H226 lung
CCRF-CEM leukemia = system: CCRF-CEM leukemia
SF-295 CNS = system: SF-295 CNS
SNB-75 CNS = system: SNB-75 CNS
SK-MEL-28 melanoma = system: SK-MEL-28 melanoma
OVCAR-5 ovarian = system: OVCAR-5 ovarian
A549 NSCLC = system: A549 NSCLC
SK-MEL-5 melanoma = system: SK-MEL-5 melanoma
M14 melanoma = system: M14 melanoma
HOP-92 NSCLC = system: HOP-92 NSCLC
MOLT-4 leukemia = system: MOLT-4 leukemia

O=C1C(=C([O-])c2ccccc2)C(=O)c2ccccc21.O=C1C(=C([O-])c2ccccc2)C(=O)c2ccccc21.[Fe+2]
> 100 µM: TGI (RPMI-8226 leukemia) | TGI (SK-OV-3 ovarian) | TGI (HCT-116 colon) | TGI (U251 CNS) | TGI (NCI-H23 lung) | TGI (DLD-1 colon) | TGI (IGROV1 ovarian) | TGI (SN12C renal) | TGI (SNB-19 CNS) | TGI (COLO 205 colon) | TGI (HL-60(TB) leukemia) | TGI (UO-31 renal) | TGI (ACHN renal) | TGI (HOP-18 NSCLC) | TGI (UACC-257 melanoma) | TGI (NCI-H522 lung) | TGI (CAKI-1 renal) | TGI (SW-620 colon) | TGI (786-0 renal) | TGI (M19-MEL melanoma) | TGI (TK-10 renal) | TGI (HT29 colon) | TGI (MALME-3M melanoma) | TGI (HOP-62 NSCLC) | TGI (A498 renal) | TGI (SF-268 CNS) | TGI (OVCAR-4 ovarian) | TGI (OVCAR-3 ovarian) | TGI (SF-539 CNS) | TGI (OVCAR-8 ovarian) | TGI (K-562 leukemia) | TGI (KM12 colon) | TGI (HCC-2998 colon) | TGI (NCI-H226 lung) | TGI (CCRF-CEM leukemia) | TGI (SF-295 CNS) | TGI (SNB-75 CNS) | TGI (SK-MEL-28 melanoma) | TGI (OVCAR-5 ovarian) | TGI (A549 NSCLC) | TGI (SK-MEL-5 melanoma) | TGI (M14 melanoma) | TGI (MOLT-4 leukemia)
inactive: GI50 (RPMI-8226 leukemia) 65.7 µM | GI50 (SK-OV-3 ovarian) > 100 µM | GI50 (HCT-116 colon) > 100 µM | GI50 (U251 CNS) 54.9 µM | GI50 (NCI-H23 lung) 58.8 µM | GI50 (DLD-1 colon) > 100 µM | GI50 (IGROV1 ovarian) > 100 µM | GI50 (LOX IMVI melanoma) 6.33 µM | GI50 (SN12C renal) > 100 µM | GI50 (SNB-19 CNS) > 100 µM | GI50 (COLO 205 colon) 38.2 µM | GI50 (HL-60(TB) leukemia) 80.9 µM | GI50 (UO-31 renal) 44.8 µM | GI50 (ACHN renal) > 100 µM | GI50 (HOP-18 NSCLC) > 100 µM | GI50 (UACC-257 melanoma) > 100 µM | GI50 (NCI-H522 lung) > 100 µM | GI50 (CAKI-1 renal) > 100 µM | GI50 (SW-620 colon) > 100 µM | GI50 (786-0 renal) > 100 µM | GI50 (M19-MEL melanoma) > 100 µM | GI50 (TK-10 renal) 88.3 µM | GI50 (HT29 colon) > 100 µM | GI50 (MALME-3M melanoma) > 100 µM | GI50 (HOP-62 NSCLC) > 100 µM | GI50 (A498 renal) > 100 µM | GI50 (SF-268 CNS) > 100 µM | GI50 (OVCAR-4 ovarian) > 100 µM | GI50 (OVCAR-3 ovarian) 89.5 µM | GI50 (SF-539 CNS) > 100 µM | GI50 (OVCAR-8 ovarian) 72.4 µM | GI50 (K-562 leukemia) 84.9 µM | GI50 (KM12 colon) 55.1 µM | GI50 (HCC-2998 colon) 69.5 µM | GI50 (NCI-H226 lung) > 100 µM | GI50 (CCRF-CEM leukemia) 80.3 µM | GI50 (SF-295 CNS) 44 µM | GI50 (SNB-75 CNS) 61.5 µM | GI50 (SK-MEL-28 melanoma) > 100 µM | GI50 (OVCAR-5 ovarian) > 100 µM | GI50 (A549 NSCLC) 54.7 µM | GI50 (SK-MEL-5 melanoma) > 100 µM | GI50 (M14 melanoma) > 100 µM | GI50 (HOP-92 NSCLC) 16.1 µM | GI50 (MOLT-4 leukemia) > 100 µM
38.6 µM: TGI (HOP-92 NSCLC)
23.6 µM: TGI (LOX IMVI melanoma)
